ChEMBL document CHEMBL1828496 (Eur J Med Chem, 2011)
pIC50: −log10 of the molar value.

Columns and labels:
[1] = Hydrolytic stability of the compound in water after 1 to 24 hrs by NMR spectroscopic analysis; assay type: physicochemical
[2] = Hydrolytic stability of the compound in acetonitrile after 1 to 24 hrs by NMR spectroscopic analysis; assay type: physicochemical
[3] = molecular target: T1, Amine oxidase [flavin-containing] A (Homo sapiens, UniProt P21397); experiment: Inhibition of human recombinant MAO-A expressed in baculovirus infected BTI-TN-5B1-4 cells assessed as production of hydrogen peroxide from p-tyramine at 100 uM after 15 mins by microplate fluorescence assay; details: human, bti-tn-5b1-4, 0.25 h, 100 µM
T1 sequence (P21397 whole entry): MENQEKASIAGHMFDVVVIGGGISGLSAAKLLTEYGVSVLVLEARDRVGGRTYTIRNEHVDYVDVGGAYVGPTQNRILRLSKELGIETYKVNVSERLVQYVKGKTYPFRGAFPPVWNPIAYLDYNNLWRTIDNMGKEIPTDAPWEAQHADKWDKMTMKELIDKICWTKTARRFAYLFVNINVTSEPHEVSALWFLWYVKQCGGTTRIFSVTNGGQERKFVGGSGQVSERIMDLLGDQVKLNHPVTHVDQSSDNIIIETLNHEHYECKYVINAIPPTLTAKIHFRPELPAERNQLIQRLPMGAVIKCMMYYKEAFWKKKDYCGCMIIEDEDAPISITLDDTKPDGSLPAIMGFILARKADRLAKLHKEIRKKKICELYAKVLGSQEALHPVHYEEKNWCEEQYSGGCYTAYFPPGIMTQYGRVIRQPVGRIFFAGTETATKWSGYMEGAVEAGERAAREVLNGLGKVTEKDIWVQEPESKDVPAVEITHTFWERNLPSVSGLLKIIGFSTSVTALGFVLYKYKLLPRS

[4] = molecular target: T2, Amine oxidase [flavin-containing] B (Homo sapiens, UniProt P27338); experiment: Inhibition of human recombinant MAO-B expressed in baculovirus infected BTI-TN-5B1-4 cells assessed as production of hydrogen peroxide from p-tyramine at 100 uM after 15 mins by microplate fluorescence assay; details: human, bti-tn-5b1-4, 0.25 h, 100 µM
T2 sequence (P27338 whole entry): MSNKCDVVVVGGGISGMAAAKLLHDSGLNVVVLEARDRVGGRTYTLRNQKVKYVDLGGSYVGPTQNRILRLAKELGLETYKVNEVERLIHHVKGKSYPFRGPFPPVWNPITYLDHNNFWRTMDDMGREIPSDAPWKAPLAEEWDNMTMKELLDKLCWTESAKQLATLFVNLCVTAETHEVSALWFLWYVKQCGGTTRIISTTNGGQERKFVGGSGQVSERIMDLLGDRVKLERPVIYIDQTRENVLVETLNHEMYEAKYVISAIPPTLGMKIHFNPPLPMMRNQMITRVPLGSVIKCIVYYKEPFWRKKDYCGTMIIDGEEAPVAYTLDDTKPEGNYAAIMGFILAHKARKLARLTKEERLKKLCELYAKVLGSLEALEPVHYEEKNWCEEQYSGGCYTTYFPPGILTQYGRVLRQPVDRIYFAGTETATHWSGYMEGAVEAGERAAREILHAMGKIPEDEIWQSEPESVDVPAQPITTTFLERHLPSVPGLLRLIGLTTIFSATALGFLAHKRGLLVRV

[5] = Hydrolytic stability of the compound in dimethyl sulfoxide after 1 to 24 hrs by NMR spectroscopic analysis; assay type: physicochemical
[6] = Hydrolytic stability of the compound in phosphate buffer at pH 7.4 after 1 to 24 hrs by NMR spectroscopic analysis; assay type: physicochemical
[7] = species on record: Homo sapiens; experiment: Selectivity ratio of IC50 for human recombinant MAO-A to IC50 for human recombinant MAO-B
[8] = molecular target: T1, Amine oxidase [flavin-containing] A; experiment: Inhibition of human recombinant MAO-A expressed in baculovirus infected BTI-TN-5B1-4 cells assessed as production of hydrogen peroxide from p-tyramine after 15 mins by microplate fluorescence assay
[9] = molecular target: T2, Amine oxidase [flavin-containing] B; experiment: biochemical; assay type: cell-based, BTI-TN-5B1-4
Description: Inhibition of human recombinant MAO-B expressed in baculovirus infected BTI-TN-5B1-4 cells assessed as production of hydrogen peroxide from p-tyramine after 15 mins by microplate fluorescence assay

[10] = molecular target: T2, Amine oxidase [flavin-containing] B; experiment: Inhibition of human recombinant MAO-B expressed in baculovirus infected BTI-TN-5B1-4 cells assessed as production of hydrogen peroxide from p-tyramine at 1 mM after 15 mins by microplate fluorescence assay; details: bti-tn-5b1-4, 0.25 h, 1000 µM

| Stability [1] | Stability [2] | inhibition (INH) [3] | inhibition (INH) [4] | Stability [5] | Stability [6] | Ratio IC50 [7] | pIC50 [8] | pIC50 [9] | inhibition (INH) [10] | SMILES |
| --- | --- | --- | --- | --- | --- | --- | --- | --- | --- | --- |
| Stable | Stable | Not Active | Not Active | Stable | Stable | – | – | – | – | CCOC(=O)c1cc2cc(I)cc(I)c2oc1=O |
| Stable | Stable | – | – | Stable | Stable | 9.16 | 4.38 | 5.34 | – | O=C(NNc1ccccc1)c1cc2ccccc2oc1=O |
| – | – | – | – | – | – | – | – | – | Not Active | O=C(NCCN1CCOCC1)c1ccc(Cl)cc1 [MOCLOBEMIDE] |
| Stable | Stable | – | – | Stable | Stable | 2160 | 4.33 | 7.67 | – | CCOC(=O)c1cc2ccc(OC3CCCCCC3)cc2oc1=O |
